Here are results for seven molecules from patent US9566281B2 (Westfaelische Wilhelms-Universitaet, priority 2012, dated 2017).

Where “and” joins values, the source holds several entries; their conditions need not be identical. Equal values may be shown once. Read-outs that look alike come from different tables or passages of the source.

In data set [1] the test system is A/Mallard/Bavaria/01/2006 (MB1, H5N1). It counts as cell-based, influenza A virus. The settings on record: MDCK II, MOI 0.001, 24 h treatment, FIG. 6/7.
For another data set, the system named is FPV. It counts as cell-based.
Another data set concerns panH1N1 (RB1). It counts as cell-based, influenza A virus.
In a further data set the test system is influenza A virus. Put plainly: Synergism of MEK inhibitor with Oseltamivir-carboxylate on A549 cells (combination index, CompuSyn). It counts as cell-based.
For the next data set, the system named is A/Anhui/1/2013 (H7N9). Put plainly: microbe, parasite or virus in culture. It counts as cell-based, influenza A virus.
The test system of a further data set is colon carcinoma. The settings on record: oral administration, mouse model; cited from earlier work.
For data set [2] the following is noted: patients taking oseltamivir; cited from earlier work.
Setting [3] is: with Oseltamivir-carboxylate, ratio 1:1, A549.
Where [4] appears, read: with Oseltamivir-carboxylate, ratio 1:10, A549.

Consider `O=C(NOC[C@H](O)CO)c1ccc(F)c(F)c1Nc1ccc(I)cc1F` [PD-0325901], for which the “antiviral potency in cell culture” value in data set [1] was “highly potent”. The antiviral potency entry in the data set with FPV and with panH1N1 (RB1) was “potent” throughout.
Regarding `O=C(NOCC1CC1)c1ccc(F)c(F)c1Nc1ccc(I)cc1Cl` [CI-1040], in the data set on influenza A virus (setting [3]), the “CI value at ED75” value turned out to be 0.4010, the “CI value at ED90” value is 0.3987 and the “CI value at ED95” value is reported as 0.4412. For the same molecule, in data set [1], the “antiviral potency in cell culture” value is given as “highly potent”. The antiviral potency result in the data set with FPV is listed as “potent”. Also, the antiviral potency entry with panH1N1 (RB1) is recorded as “potent”.
For `Cn1cnc2c(F)c(Nc3ccc(Br)cc3Cl)c(C(=O)NOCCO)cc21` [AZD-6244], in the data set with influenza A virus, the “CI value at ED75” value was 0.2086 and 0.1616; the “CI value at ED90” value is 0.2962 and 0.2330; the “CI value at ED95” value was 0.3760 and 0.2993.
The EC50 is the concentration at which the effect is half-maximal. Regarding `CCCS(=O)(=O)Nc1ccc(F)c(C(=O)c2c[nH]c3ncc(-c4ccc(Cl)cc4)cc23)c1F` [PLX-4032], in the data set on influenza A virus (setting [3]), the “CI value at ED75” value was determined as 0.3472, the “CI value at ED90” value is 0.4332 and the “CI value at ED95” value is recorded as 0.5036. Moreover, in the data set on influenza A virus (setting [4]), the “CI value at ED75” value is 0.2305, the “CI value at ED90” value is listed as 0.2367 and the “CI value at ED95” value was 0.2413. In the data set with A/Anhui/1/2013 (H7N9) (A549, H7N9, FIGS. 13A and B), the antiviral potency entry was “highly potent”. Further, in the data set on A/Anhui/1/2013 (H7N9) (Influenza A virus, H7N9, A549, 24 h), the response was half-maximal at 12 µM (EC50).
For `CC(=O)Nc1cccc(-n2c(=O)n(C3CC3)c(=O)c3c(Nc4ccc(I)cc4F)n(C)c(=O)c(C)c32)c1` [GSK-1120212], in the data set on influenza A virus, the “CI value at ED75” value came out at 0.4758, the “CI value at ED90” value is 0.4648 and the “CI value at ED95” value is recorded as 0.4576.
For `O=C(NOCC1CC1)c1ccc(F)c(F)c1Nc1ccc(I)cc1Cl` [PD184352, 2-(2-chloro-4-iodo-phenylamino)-N-cyclopropylmethoxy-3,4-difluoro-benzamide], the “growth of colon carcinoma” value in the data set with colon carcinoma was “efficiently inhibit”.
Turning to oseltamivir, the “patients experiencing nausea and vomiting” value in data set [2] is 10-15%.
